Measured values: patent US20250051321A1, “TRICYCLIC DERIVATIVE AND PREPARATION METHOD THEREFOR AND APPLICATION THEREOF” (SHANGHAI JEMINCARE PHARMACEUTICAL CO., LTD., priority 2021, published 2025)
Where two headings read alike, the source gives them in different places.

Columns and labels:
ATX = ATX (Homo sapiens (Human), UniProt Q13822); assay: ATX enzyme inhibition assay (Amplex UltraRed/choline oxidase/HRP, 16:0 Lyso PC substrate); type: biochemical
Protocol: All compounds were prepared as a 10 mM DMSO stock solution.
Solutions at pH 8.5 and pH 7.5 were prepared respectively with the following formulations:
All compounds, including the positive control compound, were diluted 5-fold from 10 mM to 2 mM with DMSO in the first step. The mixture was then diluted to 100 μM with 1× assay buffer.
3. Separate Detection of Compounds with 1× Assay Buffer at Two pH Values:
a) 5 μL of 10× compound diluent was added to a 384-well plate (Greiner 781209) using a motorized pipette (see the “experimental preparation” step). 5 μL of 1× assay buffer containing 5% DMSO was added to both negative and positive control wells. The plate was centrifuged at 300 rpm for 1 minute at room temperature.
b) 2× ATX ([…]) was prepared with 1× assay buffer, and 25 μL of 2× ATX was added to the plate using a motorized pipette. 25 μL of 1× assay buffer was added to the negative control wells and 25 μL of 2× ATX was added to the positive control wells. The plate was centrifuged at 300 rpm for 1 minute at room temperature.
The plate was incubated at room temperature for 10 minutes.
c) 2.5× working solution containing Amplex UltraRed reagent (125 μM), HRP (2.5 U/mL), choline oxidase (1.25 U/mL), and 16:0 Lyso PC (75 μM) was prepared with 1× assay buffer. 20 μL of 2.5× working solution was added to all reaction wells using a motorized pipette. The plate was centrifuged at 300 rpm for 1 minute at room temperature.
d) The plate was detected by SpectraMax with the following procedures: fluorescence mode; excitation at 550 nm; emission at 590 nm; kinetics; read once every 2 minutes; read continuously for 60 minutes.
The calculation formula of % inhibition (i.e., % inhibition rate) was as follows: […]
V0: X-axis is taken as 0 to 30 minutes, Y-axis is taken as fluorescence readings, and the slope corresponding to the straight line fitted by the software GraphPad Prism 8 is the initial response rate.
V0max: Average V0 of the positive control wells in the plate.
V0min: Average V0 of the negative control wells in the plate.
The IC50 of the compounds was calculated from a nonlinear regression line (dose-initial response rate) fitted by % inhibition and log value of compound concentration using the software GrahPad Prism 8.

[1] = tested on: plasma LPA 18:1 and LPA 18:2; assay: Human plasma ex vivo assay (LPA 18:1 / 18:2 by LC-MS/MS); type: biochemical; conditions: 37° C., 2 hours
Protocol: The collected plasma was centrifuged at 4000 rpm for 15 minutes at 4° C. The supernatant was aliquoted into a 96-well plate (25 μL per well), sealed, and frozen at −80° C. for further use.
LPA 17:0 powder was dissolved in a mixed solution of water: isopropanol: formic acid (1:1:1) to a final concentration of […]. The mixture was aliquoted and frozen at −20° C.
1 volume of formic acid was added to 1000× methanol, mixed well, and stored at 4° C. a) The 96-well plate containing frozen plasma was removed from the −80° C. freezer and thawed on ice at room temperature. b) 6 μL of 50× LPA 17:0 (internal standard) and 264 μL of 0.1% FA were added to a clean well of the 96-well plate; the final concentration of LPA 17:0 (internal standard) was 50 nM. c) 6× compound was 1:3 serially diluted to a total of 8 concentrations, and 5 μL of the compound per well was added to the 96-well plate containing plasma. The maximum final concentration of the compound was 10 μM, and the final concentration of DMSO was 0.1%. The plate was centrifuged at 300 rpm for 30 seconds. The DMSO control sample reacted for 0 hours was used as the minimum value (Min), and the DMSO control sample reacted for 2 hours was used as the maximum value (Max). […]
d) The DMSO sample reacted for 0 hours was rapidly transferred to 0.1% FA solution containing the internal standard in step b) to terminate the reaction and precipitate plasma proteins. e) The 96-well plate containing plasma and compounds was rapidly incubated in a 37° C. incubator for 2 hours. After the incubation, 6 μL of 10× LPA 17:0 and 264 μL of 0.1% FA were added to each well to terminate the reaction and precipitate plasma proteins. […]
f) All the samples were mixed well with a pipette, and centrifuged at 4000 rpm for 10 minutes at 4° C. 150 μL of the supernatant was added to a 96-well U-bottom plate (Thermo 267245), sealed with silica gel, and then loaded. The contents of LPA 18:1 and LPA 18:2 in the samples were detected by LC-MS/MS system.
LPA 18:1(or 18:2) relative content=LPA 18:1(or 18:2) peak area/LPA 17:0 peak area Percentage reduction (%) in plasma LPA18:1(or 18:2)=(Max−X)/(Max−Min)*100 Max: LPA 18:1 (or 18:2) relative content of the DMSO sample reacted for 2 hours Min: LPA 18:1 (or 18:2) relative content of the DMSO sample reacted for 0 hours X: LPA 18:1 (or 18:2) relative content of the sample after compound treatment for 2 hours The IC50 of the compounds was calculated by fitting a nonlinear regression through percentage reduction in plasma LPA 18:1 (or 18:2) and log value of compound concentration using the software GraphPad Prism 8.
Y=Bottom+(Top−Bottom)/(1+10^((Log IC50−X)*Hill Slope))

[2] = assay buffer pH 8.5, read-out: IC50 (nM) pH 8.5
[3] = LPA 18:1, read-out: Human plasma ex vivo assay IC50 (18:1 LPA)
[4] = LPA 18:2, read-out: Human plasma ex vivo assay IC50 (18:2 LPA)
[5] = assay buffer pH 7.5, read-out: IC50 (nM) pH 7.5

| SMILES | IC50 (ATX; [2]) [nM] | IC50 [1, 3] [nM] | IC50 [1, 4] [nM] | IC50 (ATX; [5]) [nM] |
| --- | --- | --- | --- | --- |
| CN(c1nc(-c2ccc(F)cc2)c(C#N)s1)c1c2c(nc3c(F)cc(N4CC5(CN(C(=O)[C@]6(O)CCOC6)C5)C4)cc13)[C@@H](O)CC2 (single isomer, unassigned) [Example E19-1b] | 27.2 | 218 | 479 | – |
| CN(c1nc(-c2ccc(F)cc2)c(C#N)s1)c1c2c(nc3c(F)cc(N4CC5(CN(C(=O)[C@@H]6CCOC6)C5)C4)cc13)CCC2 [Example C2] | 23.8 | 402 | 365 | 41.6 |
| CN(c1nc(-c2ccc(F)cc2)c(C#N)s1)c1c2c(nc3c(F)cc(N4CC5(CN(C(=O)[C@@H]6CCOC6)C5)C4)cc13)[C@@H](O)CC2 (single isomer, unassigned) [Example E13-a] | 19.8 | 385 | 385 | – |
| C[C@H]1CN(c2cc(F)c3nc4c(c(N(C)c5nc(-c6ccc(F)cc6)c(C#N)s5)c3c2)CC[C@@H]4O)CCN1CC(=O)N1CC(O)C1 (single isomer, unassigned) [Example E8-a] | 22.5 | 280 | 324 | – |
| CN(c1nc(-c2ccc(F)cc2)c(C#N)s1)c1c2c(nc3ncc(N4CC5(CN(C(=O)[C@H]6CCOC6)C5)C4)cc13)CCC2 [Example C3] | 22.7 | 141 | 135 | 32 |
| C[C@@H]1CN(c2cc(F)c3nc4c(c(N(C)c5nc(-c6ccc(F)cc6)c(C#N)s5)c3c2)CC[C@H]4O)CCN1CC(=O)N1CC(O)C1 (single isomer, unassigned) [Example E9-b] | 18.4 | 209 | 199 | – |
| C[C@@H]1CN(c2cc(F)c3nc4c(c(N(C)c5nc(-c6ccc(F)cc6)c(C#N)s5)c3c2)CC[C@@H]4O)CCN1CC(=O)N1CC(O)C1 (single isomer, unassigned) [Example E9-a] | 21.5 | 464 | 392 | – |
| C[C@H]1CN(CC(=O)N2CC(O)C2)CCN1c1cc(F)c2nc3c(c(N(C)c4nc(-c5ccc(F)cc5)c(C#N)s4)c2c1)CCC3O (some centres unmarked) [Example E7] | 15.4 | 149 | 327 | – |
| CN(c1nc(-c2ccc(F)cc2)c(C#N)s1)c1c2c(nc3c(F)cc(N4CC5(CN(C(=O)[C@@]6(O)CCOC6)C5)C4)cc13)[C@@H](O)CC2 (single isomer, unassigned) [Example E19-2a] | 26.7 | 207 | 203 | – |
| CN(c1nc(-c2ccc(F)cc2)c(C#N)s1)c1c2c(nc3c(F)cc(N4CC5(CN(C(=O)[C@H]6CCOC6)C5)C4)cc13)CCO2 [Example C12] | 52.6 | 292 | 347 | 82.2 |
| CN(c1nc(-c2ccc(F)cc2)c(C#N)s1)c1c2c(nc3c(F)cc(N4CC5(CN(C(=O)[C@@]6(O)CCOC6)C5)C4)cc13)[C@@H](O)CC2 (single isomer, unassigned) [Example E19-2b] | 334 | 113 | 310 | – |
| CN(c1nc(-c2ccc(F)cc2)c(C#N)s1)c1c2c(nc3c(F)cc(N4CC5(CCN(CC(=O)N6CC(O)C6)CC5)C4)cc13)CCC2 [Example A11] | 145 | 299 | 359 | 1180 |
| CN(c1nc(-c2ccc(F)cc2)c(C#N)s1)c1c2c(nc3c(F)cc(N4CC5(CN(C(=O)C6(O)CCOCC6)C5)C4)cc13)C(O)CC2 (centres unmarked) [Example E15] | 13.3 | 266 | 271 | – |
| CN(c1nc(-c2ccc(F)cc2)c(C#N)s1)c1c2c(nc3ccc(N4CCN(S(C)(=O)=O)C[C@H]4CO)cc13)CCC2 [Example B2] | 58.8 | 177 | 201 | 141 |
| Cc1cc(N2CCN(CC(=O)N3CC(O)C3)CC2)cc2c(N(C)c3nc(-c4ccc(F)cc4)c(C#N)s3)c3c(nc12)CCC3 [Example A14] | 228 | 304 | 338 | – |
| CN(c1nc(-c2ccc(F)cc2)c(C#N)s1)c1c2c(nc3c(F)cc(N4CC5(CN(CC(=O)N6CC(CO)C6)C5)C4)cc13)CCC2 [Example A25] | 75 | 251 | 269 | 541 |
| CN(c1nc(-c2ccc(F)cc2)c(C#N)s1)c1c2c(nc3ncc(N4CCN(CC(=O)N5CC(O)C5)CC4)cc13)CCC2 [Example A21] | 23.7 | 70.2 | 55.9 | 125 |
| CN(c1nc(-c2ccc(F)cc2)c(C#N)s1)c1c2c(nc3c(F)cc(N4CCN(CC(=O)N5CC(F)C5)CC4)cc13)CCC2 [Example A16] | 75.7 | 286 | 341 | 282 |
| CN1CC[C@H](C(=O)N2CC3(C2)CN(c2cc(F)c4nc5c(c(N(C)c6nc(-c7ccc(F)cc7)c(C#N)s6)c4c2)CC[C@@H]5O)C3)C1 (single isomer, unassigned) [Example E18-a] | 23.4 | – | – | – |
| CN(c1nc(-c2ccc(F)cc2)c(C#N)s1)c1c2c(nc3c(F)cc(N4CC5(CN(C(=O)[C@@H]6COC[C@H]6O)C5)C4)cc13)[C@H](O)CC2 (single isomer, unassigned) [Example E20-b] | 17 | – | – | – |
| CN(c1nc(-c2ccc(F)cc2)c(C#N)s1)c1c2c(nc3c(F)cc(N4CC5(CN(C(=O)C6CCOCC6)C5)C4)cc13)[C@@H](O)CC2 (single isomer, unassigned) [Example E14-a] | 16.6 | – | – | – |
| CN(c1nc(-c2ccc(F)cc2)c(C#N)s1)c1c2c(nc3c(F)cc(N4CC5(CN(CC(=O)N6CC(O)C6)C5)C4)cc13)CCO2 [Example A23] | 75.3 | – | – | – |
| CN(c1nc(-c2ccc(F)cc2)c(C#N)s1)c1c2c(nc3c(F)cc(N4CC5(CN(C(=O)C(C)(C)O)C5)C4)cc13)COC2 [Example C21] | 49.1 | – | – | – |
| CN(c1nc(-c2ccc(F)cc2)c(C#N)s1)c1c2c(nc3c(F)cc(N4CC5(CN(C(=O)C6CCOCC6)C5)C4)cc13)[C@H](O)CC2 (single isomer, unassigned) [Example E14-b] | 14.7 | – | – | – |
| CN(c1nc(-c2ccc(F)cc2)c(C#N)s1)c1c2c(nc3c(F)cc(N4CC5(CN(CC(=O)N6CC(CO)C6)C5)C4)cc13)CCO2 [Example A29] | 111 | – | – | – |
| C[C@@H]1CN(CC(=O)N2CC(O)C2)CCN1c1cc(F)c2nc3c(c(N(C)c4nc(-c5ccc(F)cc5)c(C#N)s4)c2c1)COC3 [Example A31] | 26.9 | – | – | – |
| CN(c1nc(-c2ccc(F)cc2)c(C#N)s1)c1c2c(nc3c(F)cc(N4CCN(CC(=O)N5CC(O)C5)CC4)cc13)C(O)CC2 (centres unmarked) [E1-1] | 21.3 | – | – | – |
